Source: PubChem BioAssay AID1963837 (Molecular Pharmacology Branch, DTP, NCI, 2024)

Tested on: 843126-344-R-J1-PDC complex spheroid viability
Test: Anticancer human tumor 843126-344-R-J1-PDC patient-derived melanoma cell line growth inhibition [POLQ]
Details: for IC50: curve of first compound; for viability, T/C: stronger effect = lower value
Procedure: Multicellular complex tumor spheroid response to Polymerase (POL) inhibitors (novobiocin, ART-558, RP6685) in combination with a variety of drugs and investigational agents in selected tumor cell lines
The POL inhibitors (novobiocin, ART-558, and RP6685) were evaluated both individually and in combination with standard of care and investigational anticancer small molecules within a complex spheroid model of solid tumors. . Complex spheroids include a stromal component modeled by human endothelial cells (HUVEC) and fibroblasts modeled by human mesenchymal stem cells (MSCs). The concentration ranges selected for each drug and investigational agent were based upon clinically achievable concentrations if the clinical Cmax of the agent was known.
Compounds. The drugs and investigational agents: novobiocin (NSC847541), ART-558 (NSC835418), RP-6685 (NSC848927), peposertib (NSC802822), ceralasertib (NSC780249), elimusertib (NSC800525), camonsertib (NSC841442), AZD-1390 (NSC803789), olaparib (NSC753686), talazoparib (NSC767125), rucaparib (NSC756644), sotorasib (NSC818433), MRTX-1133 (NSC836407), SN-38 (NSC673596), topotecan (NSC609699), epotoside (NSC141540), doxorubicin (NSC123127), gemcitabine (NSC613327), 5-fluorouracil (NSC19893), paclitaxel (NSC125973), vemurafenib (NSC761431), MSA-2 (NSC828583), SN-011 (NSC837082), adavosertib (NSC754352), prexasertib (NSC758257), carboplatin (NSC241240) and oxaliplatin (NSC266046), were obtained from the National Cancer Institute (NCI) Developmental Therapeutics Program Chemical Repository (21). The FDA-approved anticancer drug set is available from the Developmental Therapeutics Program at https://dtp.cancer.gov/organization/dscb/obtaining/. […] The stock solutions were prepared in dimethyl sulfoxide (DMSO, Sigma-Aldrich, St. Louis, MO, cat. D2650), except for the platinum compounds which were prepared in saline (Quality Biological, Gaithersburg, MD, cat. 114-055-101), at 800-fold the tested concentration and stored at -70 degrees C prior to their use. All drugs and investigational agents were tested over a range starting from a high concentration at or near the clinical Cmax and decreasing in half-log increments. If the clinical Cmax for an agent had not been determined, the highest concentration tested was 10 microM, except for SN-38, which was tested at a high concentration of 1 microM.
Cell Culture. All cells were maintained in an incubator at 37 degrees C and 5% CO2 with 95% humidity. The PDC lines were cultured according to standard operating procedures established by the NCI PDMR (https://pdmr.cancer.gov). Table 3 of the manuscript, lists the cell lines along with the number of the three cell types plated to form the mct-spheroids and media for tumor cell growth. After thawing, all PDC lines, except 997537-175-T-J1-PDC and 415267-285-R-J2-PDC, were cultured in Matrigel-coated flasks prepared with a working solution of 1X Ham's F-12 nutrient mix, without supplementation (Thermo Fisher Scientific, cat. 11765054), 100 U/mL penicillin-streptomycin (Thermo Fisher Scientific, cat. 15140122), and 2.5% Matrigel (Corning Inc., Corning, NY, cat. 354248) for the first three passages. The two PDC lines 997537-175-T-J1-PDC and 415267-285-R-J2-PDC were cultured on uncoated flasks. The 857933-349-R-J2-PDC line was cultured in 6C/Colon 1B media containing advanced DMEM/F-12 (Thermo Fisher Scientific, cat. 12634028), 10 mM HEPES (Thermo Fisher Scientific, cat. 15630080), 1X GlutaMAX supplement (Thermo Fisher Scientific, cat. 35050061), 0.1 mg/mL primocin (InvivoGen, San Diego, CA, cat. ant-pm-2), 10% defined fetal bovine serum, heat inactivated (HyClone Laboratories Inc., Logan, UT, cat. SH30070.03HI), 50% L-WRN conditioned media (ATCC, cat. CRL-3276), 1.25 mM N-Acetyl-L-cysteine (Sigma-Aldrich, cat. A9165), 10 mM nicotinamide (Sigma-Aldrich, cat. N0636), 1X B-27 supplement (Thermo Fisher Scientific, cat. 17504044), 1X N-2 supplement (Thermo Fisher Scientific, cat. […]

[1] = second compound 0.0316 µM, first compound 0.0316 µM
[2] = second compound 0.0316 µM, first compound 0.1 µM
[3] = second compound 0.1 µM, first compound 0.0316 µM
[4] = second compound 0.1 µM, first compound 0.1 µM
[5] = second compound 0.316 µM, first compound 0.0316 µM
[6] = second compound 0.316 µM, first compound 0.1 µM
[7] = second compound 1 µM, first compound 0.0316 µM
[8] = second compound 1 µM, first compound 0.1 µM
[9] = second compound 3.16 µM, first compound 0.0316 µM
[10] = second compound 3.16 µM, first compound 0.1 µM
[11] = second compound 10 µM, first compound 0.0316 µM
[12] = second compound 10 µM, first compound 0.1 µM
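For viability, T/C in this document: spheroids exposed to drugs for seven days before readout.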

**Q.** Which IC50 (second compound 0.0316 µM) does the source give for `CCCS(=O)(=O)Nc1ccc(F)c(C(=O)c2c[nH]c3ncc(-c4ccc(Cl)cc4)cc23)c1F` + Nc1ccc(C#CCN(C(=O)Cc2ncc(C(F)(F)F)cc2C(F)(F)F)c2ccc(F)cc2)nn1 here?
**A.** > 10 µM

**Q.** And the IC50 (second compound 0.1 µM)?
**A.** > 10 µM

**Q.** What about the IC50 (second compound 0.316 µM) of the same compound?
**A.** > 10 µM

**Q.** What about the IC50 (second compound 1 µM) of the same compound?
**A.** > 10 µM

**Q.** And the IC50 (second compound 3.16 µM)?
**A.** > 10 µM

**Q.** What about the IC50 (second compound 10 µM) of the same compound?
**A.** > 10 µM

**Q.** And the viability, T/C [1]?
**A.** 86%

**Q.** What about the viability, T/C [2] of the same compound?
**A.** 92.7%

**Q.** And the viability, T/C (second compound 0.0316 µM, first compound 0.316 µM)?
**A.** 98.9%

**Q.** And the viability, T/C (second compound 0.0316 µM, first compound 1 µM)?
**A.** 77.9%

**Q.** And the viability, T/C (second compound 0.0316 µM, first compound 3.16 µM)?
**A.** 77.5%

**Q.** What about the viability, T/C (second compound 0.0316 µM, first compound 10 µM) of the same compound?
**A.** 86.7%

**Q.** What about the viability, T/C [3] of the same compound?
**A.** 82%

**Q.** And the viability, T/C [4]?
**A.** 91.8%

**Q.** And the viability, T/C (second compound 0.1 µM, first compound 0.316 µM)?
**A.** 82.8%

**Q.** And the viability, T/C (second compound 0.1 µM, first compound 1 µM)?
**A.** 82.3%

**Q.** And the viability, T/C (second compound 0.1 µM, first compound 3.16 µM)?
**A.** 78.1%

**Q.** And the viability, T/C (second compound 0.1 µM, first compound 10 µM)?
**A.** 57.4%

**Q.** And the viability, T/C [5]?
**A.** 85.8%

**Q.** What about the viability, T/C [6] of the same compound?
**A.** 92.8%

**Q.** And the viability, T/C (second compound 0.316 µM, first compound 0.316 µM)?
**A.** 88.9%

**Q.** What about the viability, T/C (second compound 0.316 µM, first compound 1 µM) of the same compound?
**A.** 87.4%

**Q.** What about the viability, T/C (second compound 0.316 µM, first compound 3.16 µM) of the same compound?
**A.** 77.5%

**Q.** What about the viability, T/C (second compound 0.316 µM, first compound 10 µM) of the same compound?
**A.** 82%

**Q.** What about the viability, T/C [7] of the same compound?
**A.** 93.5%

**Q.** What about the viability, T/C [8] of the same compound?
**A.** 91.8%

**Q.** What about the viability, T/C (second compound 1 µM, first compound 0.316 µM) of the same compound?
**A.** 71%

**Q.** What about the viability, T/C (second compound 1 µM, first compound 1 µM) of the same compound?
**A.** 85.5%

**Q.** And the viability, T/C (second compound 1 µM, first compound 3.16 µM)?
**A.** 77.2%

**Q.** And the viability, T/C (second compound 1 µM, first compound 10 µM)?
**A.** 76.2%

**Q.** What about the viability, T/C [9] of the same compound?
**A.** 86.4%

**Q.** And the viability, T/C [10]?
**A.** 105%

**Q.** And the viability, T/C (second compound 3.16 µM, first compound 0.316 µM)?
**A.** 95.2%

**Q.** What about the viability, T/C (second compound 3.16 µM, first compound 1 µM) of the same compound?
**A.** 78%

**Q.** And the viability, T/C (second compound 3.16 µM, first compound 3.16 µM)?
**A.** 62.7%

**Q.** What about the viability, T/C (second compound 3.16 µM, first compound 10 µM) of the same compound?
**A.** 63.4%

**Q.** And the viability, T/C [11]?
**A.** 93.3%

**Q.** What about the viability, T/C [12] of the same compound?
**A.** 79.9%

**Q.** And the viability, T/C (second compound 10 µM, first compound 0.316 µM)?
**A.** 79.7%

**Q.** What about the viability, T/C (second compound 10 µM, first compound 1 µM) of the same compound?
**A.** 82.3%

**Q.** And the viability, T/C (second compound 10 µM, first compound 3.16 µM)?
**A.** 74%

**Q.** What about the viability, T/C (second compound 10 µM, first compound 10 µM) of the same compound?
**A.** 75.4%

**Q.** What does the source list for `CC[C@@]1(O)C(=O)OCc2c1cc1n(c2=O)Cc2cc3c(CN(C)C)c(O)ccc3nc2-1` + Nc1ccc(C#CCN(C(=O)Cc2ncc(C(F)(F)F)cc2C(F)(F)F)c2ccc(F)cc2)nn1?
**A.** IC50 (second compound 0.0316 µM): > 0.1 µM; IC50 (second compound 0.1 µM): > 0.1 µM; IC50 (second compound 0.316 µM): > 0.1 µM; IC50 (second compound 1 µM): > 0.1 µM; IC50 (second compound 3.16 µM): > 0.1 µM; IC50 (second compound 10 µM): > 0.1 µM; viability, T/C (second compound 0.0316 µM, first compound 0.000316 µM): 85%; viability, T/C (second compound 0.0316 µM, first compound 0.001 µM): 94%; viability, T/C (second compound 0.0316 µM, first compound 0.00316 µM): 82.8%; viability, T/C (second compound 0.0316 µM, first compound 0.01 µM): 100%; viability, T/C [1]: 71.1%; viability, T/C [2]: 50.2%; viability, T/C (second compound 0.1 µM, first compound 0.000316 µM): 103%; viability, T/C (second compound 0.1 µM, first compound 0.001 µM): 85.8%; viability, T/C (second compound 0.1 µM, first compound 0.00316 µM): 91%; viability, T/C (second compound 0.1 µM, first compound 0.01 µM): 87.7%; viability, T/C [3]: 67.2%; viability, T/C [4]: 55.8%; viability, T/C (second compound 0.316 µM, first compound 0.000316 µM): 96.4%; viability, T/C (second compound 0.316 µM, first compound 0.001 µM): 81.4%; viability, T/C (second compound 0.316 µM, first compound 0.00316 µM): 90.5%; viability, T/C (second compound 0.316 µM, first compound 0.01 µM): 91.7%; viability, T/C [5]: 72%; viability, T/C [6]: 61.1%; viability, T/C (second compound 1 µM, first compound 0.000316 µM): 85.1%; viability, T/C (second compound 1 µM, first compound 0.001 µM): 93.3%; viability, T/C (second compound 1 µM, first compound 0.00316 µM): 102%; viability, T/C (second compound 1 µM, first compound 0.01 µM): 93.9%; viability, T/C [7]: 63.8%; viability, T/C [8]: 49.2%; viability, T/C (second compound 3.16 µM, first compound 0.000316 µM): 93.6%; viability, T/C (second compound 3.16 µM, first compound 0.001 µM): 98.2%; viability, T/C (second compound 3.16 µM, first compound 0.00316 µM): 95.3%; viability, T/C (second compound 3.16 µM, first compound 0.01 µM): 106%; viability, T/C [9]: 64.9%; viability, T/C [10]: 54.7%; viability, T/C (second compound 10 µM, first compound 0.000316 µM): 85.9%; viability, T/C (second compound 10 µM, first compound 0.001 µM): 87.3%; viability, T/C (second compound 10 µM, first compound 0.00316 µM): 87.8%; viability, T/C (second compound 10 µM, first compound 0.01 µM): 92.9%; viability, T/C [11]: 69.2%; viability, T/C [12]: 50%
